≈ marks a conversion by molar mass, not a printed value. Read-outs that look alike come from different tables or passages of the source.
Experiments:
[1] = biological target: FLT3 (Homo sapiens (Human), UniProt P36888); assay: biochemical
[2] = biological target: IRAK4 (Homo sapiens (Human), UniProt Q9NWZ3); assay: biochemical
[3] = rat
[4] = biological target: T1, IRAK1 (Homo sapiens (Human), UniProt P51617); assay: biochemical; conditions: IC50 IRAK1, 10-dose IC50 mode, 10 μM ATP
[5] = test system: P-IRAK4; assay: Immunoblot of compensatory P-IRAK4 in FLT3-ITD AML cells; assay type: cell-based, human; conditions: 50 nM
[6] = biological target: PDGFRβ (Homo sapiens (Human), UniProt P09619); assay: biochemical; conditions: IC50 PDGFRb, 10-dose IC50 mode, 10 μM ATP
[7] = biological target: Receptor-type tyrosine-protein kinase FLT3 (Homo sapiens, UniProt P36888, ITD); assay: biochemical
[8] = test system: MA9-NRas cells; assay: NRAS IC50 (MA9-NRas cells); assay type: cell-based; conditions: Homo sapiens, read-out: NRAS IC50
[9] = physchem; conditions: pH 7.4, aqueous buffer, kinetic from dmso stock
[10] = biological target: LCK (Homo sapiens (Human), UniProt P06239); assay: biochemical; conditions: 10-dose IC50 mode, 10 μM ATP
[11] = test system: Phospho (P)-STAT5; assay: P-STAT5 AlphaLISA assay in MV4;11 cells; assay type: cell-based; conditions: Homo sapiens, MV4-11, 5 h, read-out: IC50 of STAT5 phosphorylation
[12] = biological target: SRPK1 (Homo sapiens (Human), UniProt Q96SB4); assay: biochemical
[13] = biological target: CDK7/cyclin H (Homo sapiens (Human), UniProt P50613); assay: biochemical
[14] = test system: FLT3 phosphorylation; assay: Immunoblot of P-FLT3 in MV4;11 cells; assay type: cell-based, human; conditions: 50 nM, 24 hours
[15] = biological target: FLT3 (D835Y) (Homo sapiens (Human), UniProt P36888, D835Y); assay: biochemical
[16] = biological target: BLK (Homo sapiens (Human), UniProt P51451); assay: biochemical; conditions: IC50 BLK, 10-dose IC50 mode, 10 μM ATP
[17] = biological target: RET (Homo sapiens (Human), UniProt P07949); assay: biochemical; conditions: IC50 RET, 10-dose IC50 mode, 10 μM ATP
[18] = test system: normal cord blood CD34+ cells; assay: Colony formation of normal cord blood CD34+ cells; conditions: 1 μM, 10 days
[19] = test system: MDSL cells; assay: CellTiter-Glo growth of MDSL cells; assay type: cell-based, human; conditions: 72 hours, cell-titer glow
[20] = biological target: T1, IRAK1; assay: Kd kinase binding assay IRAK1
[21] = test system: IRAK4 phosphorylation; assay: Immunoblot of P-IRAK4 in MDSL cells; assay type: cell-based, human; conditions: 24 hours
[22] = in vivo; conditions: NRG/NRGS, mouse, ip, 30 mg/kg
[23] = NRG/NRGS, mouse, in vivo, ip, 30 mg/kg
[24] = PAMPA
[25] = pH 7.4

RET, sequence (P07949 29-1114 limits assumed): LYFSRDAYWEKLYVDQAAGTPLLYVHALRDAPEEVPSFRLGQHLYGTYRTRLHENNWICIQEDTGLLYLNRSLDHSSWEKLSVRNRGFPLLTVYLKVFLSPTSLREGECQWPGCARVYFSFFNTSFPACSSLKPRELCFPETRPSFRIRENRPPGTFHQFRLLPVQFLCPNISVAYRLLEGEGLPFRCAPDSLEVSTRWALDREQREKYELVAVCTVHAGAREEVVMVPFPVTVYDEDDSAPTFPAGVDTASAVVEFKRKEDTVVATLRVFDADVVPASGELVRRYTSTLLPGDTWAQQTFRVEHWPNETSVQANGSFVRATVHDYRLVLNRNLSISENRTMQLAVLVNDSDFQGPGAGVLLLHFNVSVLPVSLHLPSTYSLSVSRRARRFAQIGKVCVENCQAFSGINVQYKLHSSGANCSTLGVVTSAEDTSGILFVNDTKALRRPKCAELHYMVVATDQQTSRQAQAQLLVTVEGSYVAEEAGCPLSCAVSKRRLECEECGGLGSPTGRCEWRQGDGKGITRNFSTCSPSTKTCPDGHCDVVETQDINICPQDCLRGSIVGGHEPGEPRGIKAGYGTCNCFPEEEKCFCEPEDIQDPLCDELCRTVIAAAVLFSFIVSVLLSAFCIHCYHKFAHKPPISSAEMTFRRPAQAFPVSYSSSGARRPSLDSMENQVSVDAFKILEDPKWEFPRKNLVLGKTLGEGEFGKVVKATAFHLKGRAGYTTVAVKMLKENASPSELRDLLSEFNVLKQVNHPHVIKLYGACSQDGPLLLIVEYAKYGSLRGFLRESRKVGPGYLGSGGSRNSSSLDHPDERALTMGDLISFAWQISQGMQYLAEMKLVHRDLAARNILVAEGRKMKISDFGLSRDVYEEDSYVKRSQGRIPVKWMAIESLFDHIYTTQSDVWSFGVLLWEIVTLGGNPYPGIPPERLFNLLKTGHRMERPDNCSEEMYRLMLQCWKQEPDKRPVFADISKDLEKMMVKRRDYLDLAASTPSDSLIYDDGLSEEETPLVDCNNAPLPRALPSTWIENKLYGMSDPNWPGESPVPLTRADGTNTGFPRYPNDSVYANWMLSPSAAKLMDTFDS
PDGFRβ, sequence (P09619 33-1106 limits assumed): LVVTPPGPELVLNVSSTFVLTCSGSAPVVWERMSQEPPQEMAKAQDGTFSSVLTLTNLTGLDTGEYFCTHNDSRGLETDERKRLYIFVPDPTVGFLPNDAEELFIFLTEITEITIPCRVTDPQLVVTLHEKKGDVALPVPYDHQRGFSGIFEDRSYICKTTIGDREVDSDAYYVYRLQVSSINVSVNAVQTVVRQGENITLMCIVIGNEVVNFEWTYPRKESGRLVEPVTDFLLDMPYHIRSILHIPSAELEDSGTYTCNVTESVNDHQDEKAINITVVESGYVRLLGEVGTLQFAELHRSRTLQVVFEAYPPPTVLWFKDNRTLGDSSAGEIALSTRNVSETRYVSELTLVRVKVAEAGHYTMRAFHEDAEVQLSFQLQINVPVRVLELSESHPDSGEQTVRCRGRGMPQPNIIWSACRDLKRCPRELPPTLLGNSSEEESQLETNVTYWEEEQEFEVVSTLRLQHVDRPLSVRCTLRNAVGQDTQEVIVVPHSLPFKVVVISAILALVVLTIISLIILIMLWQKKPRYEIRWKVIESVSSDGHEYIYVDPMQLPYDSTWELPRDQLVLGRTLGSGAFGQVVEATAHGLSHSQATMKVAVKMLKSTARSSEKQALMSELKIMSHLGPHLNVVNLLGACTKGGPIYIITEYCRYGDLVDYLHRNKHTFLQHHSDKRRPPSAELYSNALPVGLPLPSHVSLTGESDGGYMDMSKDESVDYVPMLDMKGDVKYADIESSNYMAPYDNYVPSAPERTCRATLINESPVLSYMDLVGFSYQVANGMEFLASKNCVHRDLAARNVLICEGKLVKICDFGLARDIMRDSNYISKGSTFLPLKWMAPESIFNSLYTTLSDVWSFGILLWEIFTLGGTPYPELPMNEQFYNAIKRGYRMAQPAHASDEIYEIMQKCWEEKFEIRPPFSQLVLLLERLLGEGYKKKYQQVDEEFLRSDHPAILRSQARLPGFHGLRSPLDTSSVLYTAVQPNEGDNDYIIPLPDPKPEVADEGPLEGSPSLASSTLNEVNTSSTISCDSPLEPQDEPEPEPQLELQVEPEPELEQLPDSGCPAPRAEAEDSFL

With `COc1cc2ncc(-c3cccc(NC4CCNC4)n3)n2cc1-c1cn[nH]c1` (stereo not shown) [Compound I-20, 6-(7-methoxy-6-(1H-pyrazol-4-yl)imidazo[1,2-a]pyridin-3-yl)-N-(pyrrolidin-3-yl)pyridin-2-amine] the IC50 [1] was < 0.508 nM, the IC50 [2] was < 0.508 nM and the Stability [3] was 11.6 min. For the same molecule, the IC50 [4] was 5.34 nM, the “compensatory phosphorylation of IRAK4 (immunoblot)” value [5] was “did not result in compensatory phosphorylation of IRAK4” and the IC50 [6] was 1.25 nM. The IC50 [7] was < 0.508 nM, the IC50 [8] was 33200 nM and the solubility [9] was 4.5 µg/mL (≈ 12 µM). For the same molecule, the IC50 [10] was < 0.508 nM, the IC50 [11] was 3.6 nM and the IC50 [12] was > 10000 nM. For the same molecule, the IC50 [13] was 116 nM, the “FLT3 phosphorylation (immunoblot)” value [14] was “inhibited FLT3 phosphorylation comparably to AC220” and the IC50 [15] was < 0.508 nM. For the same molecule, the IC50 [16] was < 0.508 nM and the IC50 [17] was < 0.508 nM.

For `COc1cc2ncc(-c3cccc(NC4CCNC4)n3)n2cc1-c1cnn(C)c1` (stereo not shown) [Compound I-24, 6-(7-methoxy-6-(1-methyl-1H-pyrazol-4-yl)imidazo[1,2-a]pyridin-3-yl)-N-(pyrrolidin-3-yl)pyridin-2-amine], the “colony formation of normal CD34+ cells” value [18] was “inhibited colony formation”, the “MDSL growth inhibition compared to IRAK-Inh” value [19] was “increased ability to inhibit MDSL growth” and the Kd [20] was 2.9 nM. The “IRAK4 phosphorylation (immunoblot)” value [21] was “effectively inhibited pIRAK4”, the “FLT3 phosphorylation (immunoblot)” value [14] was “inhibited FLT3 phosphorylation comparably to AC220” and the AUC(0-inf) [22] was 6800 ng·h/mL. The Cmax [22] was 3570 ng/mL, the Tmax [22] was 4.98 min and the AUCinf. [23] was 6,800 hr*ng/mL.

For `Fc1cc(F)c(-c2cnc3ccc(Cl)cn23)nc1NC1CNC1` [Compound I-56, N-(azetidin-3-yl)-6-(6-chloroimidazo[1,2-a]pyridin-3-yl)-3,5-difluoropyridin-2-amine], the Permeability [24] was 1164.1 ×10⁻⁶ cm/s and the solubility [25] was >50.0 µg/mL.
